Measurements published in PubChem BioAssay AID1918939 (Molecular Pharmacology Branch, DTP, NCI, 2023).
pIC50: −log10 of the molar value.

Tested on: 653999-131-R-J2-PDC complex spheroid viability
Assay: Anticancer human tumor 653999-131-R-J2-PDC patient-derived lung adenocarcinoma cell line growth inhibition
Settings: for pIC50: curve of first compound; for viability, T/C: stronger effect = lower value; active = viability on the fitted dose curve at most 10% of control; inactive = the rest
Procedure, shortened: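 Multicellular complex spheroids of tumor cells with human endothelial cells (HUVEC) and mesenchymal stem cells; the LSD1 inhibitor iadademstat was combined with standard-of-care or investigational agents. Top concentration at or near clinical Cmax, half-log dilutions; final DMSO ≤0.25%.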

[1] = second compound 0.1 µM, first compound 0.0316 µM
[2] = second compound 0.1 µM, first compound 0.1 µM
[3] = second compound 0.1 µM, first compound 0.316 µM
[4] = second compound 0.1 µM, first compound 1 µM
[5] = second compound 0.316 µM, first compound 0.0316 µM
[6] = second compound 0.316 µM, first compound 0.1 µM
[7] = second compound 0.316 µM, first compound 0.316 µM
[8] = second compound 0.316 µM, first compound 1 µM
[9] = second compound 1 µM, first compound 0.0316 µM
[10] = second compound 1 µM, first compound 0.1 µM
[11] = second compound 1 µM, first compound 0.316 µM
[12] = second compound 1 µM, first compound 1 µM
[13] = second compound 3.16 µM, first compound 0.0316 µM
[14] = second compound 3.16 µM, first compound 0.1 µM
[15] = second compound 3.16 µM, first compound 0.316 µM
[16] = second compound 3.16 µM, first compound 1 µM
[17] = second compound 10 µM, first compound 0.0316 µM
[18] = second compound 10 µM, first compound 0.1 µM
[19] = second compound 10 µM, first compound 0.316 µM
[20] = second compound 10 µM, first compound 1 µM
[21] = second compound 0.1 µM, first compound 0.00949 µM
[22] = second compound 0.1 µM, first compound 0.03 µM
[23] = second compound 0.1 µM, first compound 0.0949 µM
[24] = second compound 0.1 µM, first compound 0.3 µM
[25] = second compound 0.316 µM, first compound 0.00949 µM
[26] = second compound 0.316 µM, first compound 0.03 µM
[27] = second compound 0.316 µM, first compound 0.0949 µM
[28] = second compound 0.316 µM, first compound 0.3 µM
[29] = second compound 1 µM, first compound 0.00949 µM
[30] = second compound 1 µM, first compound 0.03 µM
[31] = second compound 1 µM, first compound 0.0949 µM
[32] = second compound 1 µM, first compound 0.3 µM
[33] = second compound 3.16 µM, first compound 0.00949 µM
[34] = second compound 3.16 µM, first compound 0.03 µM
[35] = second compound 3.16 µM, first compound 0.0949 µM
[36] = second compound 3.16 µM, first compound 0.3 µM
[37] = second compound 10 µM, first compound 0.00949 µM
[38] = second compound 10 µM, first compound 0.03 µM
[39] = second compound 10 µM, first compound 0.0949 µM
[40] = second compound 10 µM, first compound 0.3 µM
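Also: spheroids exposed to agents for seven days before readout.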

CC1COCCN1c1cc(C2(S(C)(=N)=O)CC2)nc(-c2ccnc3[nH]ccc23)n1 (stereo not given) + NC1CC1c1ccc(-c2cccc(O)c2)cc1
5.68: pIC50 (second compound 0.316 µM)
5.58: pIC50 (second compound 3.16 µM)
inactive: viability, T/C [1] 99.7% | viability, T/C [2] 100% | viability, T/C [3] 102% | viability, T/C [4] 77.7% | viability, T/C (second compound 0.1 µM, first compound 3.16 µM) 47.9% | viability, T/C (second compound 0.1 µM, first compound 10 µM) 51.7% | viability, T/C [5] 104% | viability, T/C [6] 95.3% | viability, T/C [7] 92.5% | viability, T/C [8] 62.7% | viability, T/C (second compound 0.316 µM, first compound 3.16 µM) 42.5% | viability, T/C (second compound 0.316 µM, first compound 10 µM) 40.2% | viability, T/C [9] 83.1% | viability, T/C [10] 98.6% | viability, T/C [11] 83.7% | viability, T/C [12] 57.2% | viability, T/C (second compound 1 µM, first compound 3.16 µM) 39.8% | viability, T/C (second compound 1 µM, first compound 10 µM) 36.7% | viability, T/C [13] 90.2% | viability, T/C [14] 108% | viability, T/C [15] 94.5% | viability, T/C [16] 73.2% | viability, T/C (second compound 3.16 µM, first compound 3.16 µM) 43.9% | viability, T/C (second compound 3.16 µM, first compound 10 µM) 47.1% | viability, T/C [17] 77.2% | viability, T/C [18] 93% | viability, T/C [19] 82.3% | viability, T/C [20] 64% | viability, T/C (second compound 10 µM, first compound 3.16 µM) 41.1% | viability, T/C (second compound 10 µM, first compound 10 µM) 47.3%
< 5.00: pIC50 (second compound 0.1 µM)
5.80: pIC50 (second compound 1 µM)
5.65: pIC50 (second compound 10 µM)

CCN(c1cc(-c2ccc(CN3CCOCC3)cc2)cc(C(=O)NCc2c(C)cc(C)[nH]c2=O)c1C)C1CCOCC1 + NC1CC1c1ccc(-c2cccc(O)c2)cc1
inactive: viability, T/C [21] 92.9% | viability, T/C [22] 104% | viability, T/C [23] 97.8% | viability, T/C [24] 87.4% | viability, T/C (second compound 0.1 µM, first compound 0.949 µM) 94.1% | viability, T/C (second compound 0.1 µM, first compound 3 µM) 69.5% | viability, T/C [25] 102% | viability, T/C [26] 107% | viability, T/C [27] 97.8% | viability, T/C [28] 80.1% | viability, T/C (second compound 0.316 µM, first compound 0.949 µM) 79.3% | viability, T/C (second compound 0.316 µM, first compound 3 µM) 69.7% | viability, T/C [29] 96.1% | viability, T/C [30] 97.5% | viability, T/C [31] 89.4% | viability, T/C [32] 95.4% | viability, T/C (second compound 1 µM, first compound 0.949 µM) 93.6% | viability, T/C (second compound 1 µM, first compound 3 µM) 71.8% | viability, T/C [33] 108% | viability, T/C [34] 108% | viability, T/C [35] 109% | viability, T/C [36] 93.8% | viability, T/C (second compound 3.16 µM, first compound 0.949 µM) 89.3% | viability, T/C (second compound 3.16 µM, first compound 3 µM) 76.2% | viability, T/C [37] 101% | viability, T/C [38] 113% | viability, T/C [39] 97% | viability, T/C [40] 93% | viability, T/C (second compound 10 µM, first compound 0.949 µM) 90.4% | viability, T/C (second compound 10 µM, first compound 3 µM) 86.7%
< 5.52: pIC50 (second compound 0.1 µM) | pIC50 (second compound 0.316 µM) | pIC50 (second compound 1 µM) | pIC50 (second compound 3.16 µM) | pIC50 (second compound 10 µM)

Nc1ncn(C2CC(O)C(CO)S2)c(=O)n1 (stereo not given) + NC1CC1c1ccc(-c2cccc(O)c2)cc1
< 6.52: pIC50 (second compound 0.1 µM) | pIC50 (second compound 0.316 µM) | pIC50 (second compound 1 µM) | pIC50 (second compound 3.16 µM) | pIC50 (second compound 10 µM)
inactive: viability, T/C (second compound 0.1 µM, first compound 0.000949 µM) 100% | viability, T/C (second compound 0.1 µM, first compound 0.003 µM) 90.5% | viability, T/C [21] 104% | viability, T/C [22] 91% | viability, T/C [23] 78.1% | viability, T/C [24] 64.8% | viability, T/C (second compound 0.316 µM, first compound 0.000949 µM) 94.9% | viability, T/C (second compound 0.316 µM, first compound 0.003 µM) 100% | viability, T/C [25] 77.4% | viability, T/C [26] 84.8% | viability, T/C [27] 87% | viability, T/C [28] 67.6% | viability, T/C (second compound 1 µM, first compound 0.000949 µM) 81.8% | viability, T/C (second compound 1 µM, first compound 0.003 µM) 101% | viability, T/C [29] 102% | viability, T/C [30] 88.8% | viability, T/C [31] 80.4% | viability, T/C [32] 67.5% | viability, T/C (second compound 3.16 µM, first compound 0.000949 µM) 102% | viability, T/C (second compound 3.16 µM, first compound 0.003 µM) 94.2% | viability, T/C [33] 98.2% | viability, T/C [34] 85.1% | viability, T/C [35] 93.8% | viability, T/C [36] 77% | viability, T/C (second compound 10 µM, first compound 0.000949 µM) 94.3% | viability, T/C (second compound 10 µM, first compound 0.003 µM) 92.9% | viability, T/C [37] 102% | viability, T/C [38] 79.6% | viability, T/C [39] 90.3% | viability, T/C [40] 74.8%

O=C(C=Cn1cnc(-c2cc(C(F)(F)F)cc(C(F)(F)F)c2)n1)NNc1cnccn1 + NC1CC1c1ccc(-c2cccc(O)c2)cc1
7.83: pIC50 (second compound 0.1 µM)
8.16: pIC50 (second compound 0.316 µM)
> 8.50: pIC50 (second compound 1 µM) | pIC50 (second compound 3.16 µM) | pIC50 (second compound 10 µM)
inactive: viability, T/C (second compound 0.1 µM, first compound 0.00316 µM) 53.4% | viability, T/C (second compound 0.1 µM, first compound 0.01 µM) 53.9% | viability, T/C [1] 47.5% | viability, T/C [2] 38.8% | viability, T/C [3] 39% | viability, T/C [4] 29.2% | viability, T/C (second compound 0.316 µM, first compound 0.00316 µM) 54% | viability, T/C (second compound 0.316 µM, first compound 0.01 µM) 48.3% | viability, T/C [5] 44.3% | viability, T/C [6] 34.9% | viability, T/C [7] 37.2% | viability, T/C [8] 31.8% | viability, T/C (second compound 1 µM, first compound 0.00316 µM) 47.8% | viability, T/C (second compound 1 µM, first compound 0.01 µM) 51.5% | viability, T/C [9] 43% | viability, T/C [10] 34.2% | viability, T/C [11] 27.2% | viability, T/C [12] 27.4% | viability, T/C (second compound 3.16 µM, first compound 0.00316 µM) 46.4% | viability, T/C (second compound 3.16 µM, first compound 0.01 µM) 45.8% | viability, T/C [13] 38.8% | viability, T/C [14] 41.1% | viability, T/C [15] 30% | viability, T/C [16] 24.8% | viability, T/C (second compound 10 µM, first compound 0.00316 µM) 49.5% | viability, T/C (second compound 10 µM, first compound 0.01 µM) 48.8% | viability, T/C [17] 39.5% | viability, T/C [18] 39.6% | viability, T/C [19] 33.7% | viability, T/C [20] 27%
